Reference: patent US12024512B2, “Cocrystal” (TAKEDA PHARMACEUTICAL COMPANY LIMITED, priority 2016, dated 2024)
Values after ≈ are worked out from the molar mass of the structure shown.

Columns and labels:
Assay type in all cases: physicochemical
[1] = Recrystallization experiment: crystal form of precipitate from organic solvent; conditions: dissolved at 55° C., cooled to 5° C.
Procedure: (§1) Powder X-ray diffraction measurement was performed using Cu-Kα radiation and measured by horizontal multipurpose X-ray diffraction system Ultima IV manufactured by Rigaku Corporation. Differential scanning calorimetric or thermogravimetric measurement was performed using DSC1/700/903-2 manufactured by Mettler Toledo or TGA/DSC1/LF/629-2 manufactured by Mettler Toledo and measured at temperature rise rate 5° C./min. Infrared spectrum was measured using Fourier transform infrared spectrophotometer Shimadzu IR Prestige-21 manufactured by Shimadzu Corporation and mounting Dura Sample IR II manufactured by Smiths Detection and by a total reflection method absorption measurement method at resolution 4 cm^−1. Raman spectroscopy was measured using RXN2 manufactured by Kaiser Optical Systems and a laser light source at excitation wavelength 1064 nm. Single crystal X-ray diffraction was measured using Cu-Kα radiation and curved imaging plate single crystal automatic X-ray structure analyzer R-AXIS RAPID II manufactured by Rigaku Corporation. Initial phase was determined by the direct method and the structure was refined by SHELXL-97. […] Intrinsic dissolution rate measurement was evaluated using a compression-molded disc of a crystal powder alone and in 20 mmoL/L sodium phosphate buffer (pH 6.8) containing 0.2% (w/v) sodium lauryl sulfate and by a rotating disc method (rotating speed: 100 rpm). Dissolution test was performed using a powder obtained by physically mixing a crystal powder and lactose in the same weight as the crystal powder and evaluated in Fasted State Simulated Intestinal Fluid (FaSSIF) at 37° C. by a rotating paddle method (paddle rotating speed: 50 rpm). The drug concentration of a solution was determined by liquid chromatography using Alliance HPLC system e2695 and detector 2789 manufactured by Waters (separation column: YMCPackPro C18 4.6 mm[…]×150 mm, temperature: 40° C., mobile phase: 20 mmol/L sodium phosphate buffer (pH 6.8)/acetonitrile=60/40 (v/v), flow rate: 1 mL/min, ultraviolet absorption detection wavelength: 240 nm). As slurry experiment, a test solvent was added to a crystal powder, the mixture was stirred at about 25° C. for 24 hr in suspension, the obtained residue was collected by filtration, and the crystal form was confirmed by powder X-ray diffraction measurement or Raman spectroscopy. In the recrystallization experiment, crystals were dissolved in ethanol, acetone, 2-propanol, tetrahydrofuran, methyl ethyl ketone, ethyl acetate, isopropyl acetate, anisole or isobutyl acetate at 55° C., filtered through a filter, allowed to cool to 5° C. or allowed to cool to 5° C. after adding n-heptane to the solution, and the crystal form of the obtained precipitate was confirmed by powder X-ray diffraction measurement or Raman spectroscopy.

[2] = Slurry experiment: crystal form of residue after stirring in test solvent; conditions: about 25° C., 24 hr
Procedure: as §1

[3] = Solubility in aqueous solutions after shaking each crystal at 37° C. for 24 hr; conditions: thermodynamic from solid, 24 hr shaking
[4] = 2-propanol/n-heptane, n-heptane added
[5] = acetone/n-heptane, n-heptane added
[6] = anisole/n-heptane, n-heptane added
[7] = ethanol/n-heptane, n-heptane added
[8] = ethyl acetate/n-heptane, n-heptane added
[9] = methyl ethyl ketone/n-heptane, n-heptane added
[10] = tetrahydrofuran/n-heptane, n-heptane added
[11] = isobutyl acetate/n-heptane, n-heptane added
[12] = isopropyl acetate/n-heptane, n-heptane added

SMILES	Crystal form of precipitate obtained by recrystallization experiment ([1]; 2-propanol)	Crystal form of precipitate obtained by recrystallization experiment [1, 4]	Crystal form of precipitate obtained by recrystallization experiment ([1]; acetone)	Crystal form of precipitate obtained by recrystallization experiment [1, 5]	Crystal form of precipitate obtained by recrystallization experiment ([1]; anisole)	Crystal form of precipitate obtained by recrystallization experiment [1, 6]	Crystal form of precipitate obtained by recrystallization experiment ([1]; ethanol)	Crystal form of precipitate obtained by recrystallization experiment [1, 7]	Crystal form of precipitate obtained by recrystallization experiment ([1]; ethyl acetate)	Crystal form of precipitate obtained by recrystallization experiment [1, 8]	Crystal form of precipitate obtained by recrystallization experiment ([1]; isobutyl acetate)	Crystal form of precipitate obtained by recrystallization experiment ([1]; isopropyl acetate)	Crystal form of precipitate obtained by recrystallization experiment ([1]; methyl ethyl ketone)	Crystal form of precipitate obtained by recrystallization experiment [1, 9]	Crystal form of precipitate obtained by recrystallization experiment ([1]; tetrahydrofuran)	Crystal form of precipitate obtained by recrystallization experiment [1, 10]	Crystal form of residue after slurry experiment ([2]; 2-propanol)	Crystal form of residue after slurry experiment ([2]; acetone)	Crystal form of residue after slurry experiment ([2]; anisole)	Crystal form of residue after slurry experiment ([2]; distilled water)	also measured
CCc1cc2c(c(OCC(F)(F)F)c(C(=O)NC3CCN(C(=O)CO)CC3)n2C)c(=O)n1CC(=O)c1ccccc1 [anhydrous crystal of free form, 6-ethyl-N-[1-(hydroxyacetyl)piperidin-4-yl]-1-methyl-4-oxo-5-(2-oxo-2-phenylethyl)-3-(2,2,2-trifluoroethoxy)-4,5-dihydro-1H-pyrrolo[3,2-c]pyridine-2-carboxamide, reference compound]	free form (solvate)	free form (solvate)	free form (solvate)	free form (solvate)	free form (solvate)	free form (solvate)	free form (solvate)	free form (solvate)	free form (solvate)	free form (solvate)	free form solvate)	free form (solvate)	free form (solvate)	free form (solvate)	free form (solvate)	free form (solvate)	free form (solvate)	free form (solvate)	free form (solvate)	free form (solvate)	Crystal form of residue after slurry experiment ([2]; ethanol): free form (solvate); Crystal form of residue after slurry experiment ([2]; ethyl acetate): free form (solvate); Crystal form of residue after slurry experiment ([2]; methyl ethyl ketone): free form (solvate); Crystal form of residue after slurry experiment ([2]; tetrahydrofuran): free form (solvate); solubility at 24 hr ([3]; Fasted State Simulated Intestinal Fluid (FaSSIF), FaSSIF): 23.9 ± 0.1 µg/mL (≈ 41.5 µM); solubility at 24 hr ([3]; Fed State Simulated Intestinal Fluid (FeSSIF), FeSSIF): 88.7 ± 0.7 µg/mL (≈ 154 µM); solubility at 24 hr ([3]; Japanese Pharmacopoeia 1st fluid for dissolution test (JP1), simulated gastric fluid, JP1 (Japanese Pharmacopoeia 1st fluid for dissolution test)): 20.6 ± 0.4 µg/mL (≈ 35.7 µM); solubility at 24 hr ([3]; distilled water, concentration of API): 21.5 ± 0.5 µg/mL (≈ 37.3 µM)
CCc1cc2c(c(OCC(F)(F)F)c(C(=O)NC3CCN(C(=O)CO)CC3)n2C)c(=O)n1CC(=O)c1ccccc1.O=C(O)C[C@H](O)C(=O)O [cocrystal with L-malic acid, cocrystal of 6-ethyl-N-[1-(hydroxyacetyl)piperidin-4-yl]-1-methyl-4-oxo-5-(2-oxo-2-phenylethyl)-3-(2,2,2-trifluoroethoxy)-4,5-dihydro-1H-pyrrolo[3,2-c]pyridine-2-carboxamide and L-malic acid]	no precipitate	cocrystal *	free form (solvate)	free form (solvate)	no precipitate	free form (solvate)	free form (solvate)	free form (solvate)	free form (solvate)	free form (solvate)	cocrystal * + free form (solvate)	free form (solvate)	free form (solvate)	cocrystal + free form (solvate)	free form (solvate)	cocrystal + free form (solvate)	cocrystal *	cocrystal *	free form (solvate)	cocrystal* + free form (solvate)	Crystal form of precipitate obtained by recrystallization experiment [1, 11]: free form (solvate); Crystal form of precipitate obtained by recrystallization experiment [1, 12]: cocrystal * + free form (solvate); Crystal form of residue after slurry experiment ([2]; ethanol): cocrystal *; Crystal form of residue after slurry experiment ([2]; ethyl acetate): cocrystal* + free form (solvate); Crystal form of residue after slurry experiment ([2]; methyl ethyl ketone): cocrystal* + free form (solvate); Crystal form of residue after slurry experiment ([2]; tetrahydrofuran): free form (solvate)
CCc1cc2c(c(OCC(F)(F)F)c(C(=O)NC3CCN(C(=O)CO)CC3)n2C)c(=O)n1CC(=O)c1ccccc1.O=C(O)C(O)C(O)C(=O)O [cocrystal with L-tartaric acid, cocrystal of 6-ethyl-N-[1-(hydroxyacetyl)piperidin-4-yl]-1-methyl-4-oxo-5-(2-oxo-2-phenylethyl)-3-(2,2,2-trifluoroethoxy)-4,5-dihydro-1H-pyrrolo[3,2-c]pyridine-2-carboxamide and L-tartaric acid]	cocrystal *	cocrystal *	free form (solvate)	cocrystal * + free form (solvate)	no precipitate	free form (solvate)	free form (solvate)	free form (solvate)	free form (solvate)	cocrystal * + free form (solvate)	cocrystal *	free form (solvate)	free form (solvate)	cocrystal *	free form (solvate)	cocrystal *	cocrystal* + free form (solvate)	cocrystal *	cocrystal* + free form (solvate)	cocrystal* + free form (solvate)	Crystal form of precipitate obtained by recrystallization experiment [1, 11]: cocrystal *; Crystal form of precipitate obtained by recrystallization experiment [1, 12]: cocrystal *; Crystal form of residue after slurry experiment ([2]; ethanol): cocrystal * + free form (solvate); Crystal form of residue after slurry experiment ([2]; ethyl acetate): cocrystal* + free form (solvate); Crystal form of residue after slurry experiment ([2]; methyl ethyl ketone): cocrystal* + free form (solvate); Crystal form of residue after slurry experiment ([2]; tetrahydrofuran): cocrystal* + free form (solvate)
